According to article PMC7961996, “Small Immunomodulatory Molecules as Potential Therapeutics in Experimental Murine Models of Acute Lung Injury (ALI)/Acute Respiratory Distress Syndrome (ARDS)” (International Journal of Molecular Sciences, 2021):

System: hyperoxia-induced ALI mice
Assay: Hyperoxia-induced ALI murine model
Format: in vivo, C57BL6/J mice
Experimental: For the mouse efficacy studies, both AVR-25 and AVR-48 were reconstituted in 0.9% sterile normal saline to give a final concentration of 10 mg/kg; 125 µL was administered intraperitoneally (IP) for hyperoxia- and LPS- induced lung injury, and IV via the lateral tail vein for CLP-induced lung injury. Imipenem (Primaxin®) was formulated in sterile 0.9% saline solution and administered subcutaneously (SC) at a dose of 5 mg/kg to mice in a 0.2 mL volume near the dorsal scapular region for CLP-induced lung injury study. LPS was dissolved in sterile 0.9% saline solution and 100 µL was administered intratracheally for the ALI study.
Three models of ALI were used in the current study: hyperoxia-, LPS-, and CLP-induced lung injury: LPS-induced ALI was induced by administering a one-time intratracheal instillation of LPS (100 µg in a volume of 100 µL). Animals were sacrificed after 24 h following LPS administration while two doses of AVR-25 and AVR-48 were administered (10 mg/kg, IP) at 4 h and 12 h following LPS dosing. Hyperoxia-induced ALI was initiated by keeping the mice in cages in airtight polypropylene chamber exposed to hyperoxia (100% oxygen) for 48 h, following a standard protocol. Two doses of AVR-25 and AVR-48 were administered (10 mg/kg, IP) at 4 h and 12 h following hyperoxia exposure, and mice were sacrificed after 48 h.
At the end of the experimental time points for all the above groups, the mice were euthanized with an overdose of a cocktail of xylazine (100 mg/kg)/ketamine (10 mg/kg, IP) and BALF and lung tissues were harvested for further analysis. Male mice were used for all the ALI experiments.
BALF was obtained from the anesthetized mice by cannulating the upper part of the trachea with a blunt 22-gauge needle and then by lavaging three times with 1.0 mL of cold PBS (pH 7.4). The fluid recovery rate was about 90%. Lavaged samples were kept on ice, and the BALF was centrifuged at 4 °C. Total cell counts in BALF were determined using the TC20 automated cell counter (Bio-Rad Laboratories, Inc., Hercules, CA, USA). The differential cell counts were performed on cytospin preparations after staining with the Hema 3 differential Staining kit (Fisher Scientific, Kalamazoo, MI, USA). Total protein concentration in the BALF was measured using the Pierce^TM BCA assay kit (Fisher Scientific Co, Houston, TX, USA), as previously described.
Lung endothelium permeability was determined by measuring the accumulation of Evans blue in the lungs, as previously described. In brief, Evans blue dye (EBD) solution (Sigma-Aldrich, Inc., St. Louis, MO, USA, 5 mg/mL) was injected into the tail vein at a concentration of 50 mg/kg before 30 min of the experimental time point. At the experimental time points, lungs were excised and weighed. EBD was extracted in 2 mL formamide kept in a water bath at 60 °C for 3 h, and the samples were centrifuged at 500 g for 10 min. The absorption of light at 595 nm was measured spectrophotometrically (Microplate reader, Bio-Rad Laboratories, Hercules, CA, USA) with the supernatants.
Interleukin (IL)-6, IL-1β, and IL-10 were quantified on BALF while E-selectin was quantified in lung homogenate using commercially available DuoSet® ELISA kits (R&D Systems, Minneapolis, MN, USA) according to the manufacturer’s instructions, as previously described. Briefly, Nalgene Nunc Maxisorp™ plates were coated overnight with antibodies to IL-6 (2 µg/mL), IL-1β (2 µg/mL) IL-10 (2 µg/mL), or E-selectin (2 µg/mL) and the following morning plates were washed and blocked for 2 h. Samples were added to the wells at various dilutions and then incubated with detection antibody for 2 h. Plates were subsequently washed, and streptavidin-HRP conjugate antibody was added to each well for 20 min. […]

[1] = 10 mg/kg IP at 4 h and 12 h of hyperoxia (100% oxygen), 48 h

Compound: CC(=O)N[C@H]1[C@H](Oc2ccc([N+](=O)[O-])cc2)O[C@H](CO)[C@@H](O)[C@@H]1O [AVR-48, N-((2S,3R,4R,5S,6R)-4,5-dihydroxy-6-(hydroxymethyl)-2-(4-nitrophenoxy)tetrahydro-2H-pyran-3-yl) acetamide]
- neutrophils infiltration into the lung (BALF) [1]: diminished
- total immune cells infiltration into the lung (BALF) [1]: diminished
- Evans Blue dye leak concentration in the lungs (10 mg/kg IP x2): diminished levels
- expression of lung adhesion molecules ICAM-1, VCAM-1, and E-selectin in whole lung tissue (10 mg/kg IP x2): decreased expression
- total proteins in BALF (pulmonary edema) (10 mg/kg IP x2): diminished levels
- levels of pro-inflammatory cytokines (IL-1β, IL-6) in BALF and lung tissues (10 mg/kg IP x2, 48 h, vs untreated ALI mice): decreased levels
- lung injury (H&E, injury score) (10 mg/kg IP x2, 0-4 scoring): improved lung injury
- IL-10 levels in BALF (10 mg/kg IP x2, ELISA, vs non-treated ALI mice): further increase
- expression of cleaved caspase-3 in lungs (lung cell death) (10 mg/kg IP x2, Western blot): reduced expression
- expression of endothelial AJ proteins VE-cadherin and β-catenin in whole lungs (10 mg/kg IP x2, Western blot): increased expression
- expression of phosphorylated-Src in whole lungs (10 mg/kg IP x2, Western blot): decreased expression
